Tests used:
CYP3A4 = test: In vitro assessment of CYP3A4 induction in cryopreserved human hepatocytes (mRNA level); type: in vitro ADME
Experimental: Preparation and Plating of Human Hepatocytes • 1. The cryopreserved human hepatocytes were thawed in 37° C. water bath and diluted by plating medium to a seeding density of 0.55×10^6 cells/mL. • 2. Transfer 100 μL to each well of collagen I coated 96-well plate. Place plate(s) in incubator and incubate at 37° C. for 4-6 hours. • 3. After incubation, observe cell morphology, agitate plate(s) to loosen debris, and replace medium. Place plate in incubator and incubate for 18 hours. Incubation with Test Compound(s) • 1. Prepare dilute test compound and positive control inducers with 37° C. prepared incubation medium to respective working concentrations (Table 11). Final concentration of DMSO in the treatment group will be 0.1%. Prepare 25 mM chlorpromazine in DMSO and dilute 1000-fold with incubation medium as a cytotoxicity control. • 2. Remove the Hepatocyte plate from the incubator. Observe cell morphology. Replace the medium in the appropriate wells with 125 μL of the toxicity controls, DMSO controls, inducers, or test article solutions, each in triplicate. • 3. After 24 hours and 48 hours, remove the Hepatocyte plate from the incubator and observe cell morphology. Renew the medium with test articles that freshly diluted from DMSO stocks. Return plate to the incubator. 4. mRNA Preparation and RT-PCR • 1. mRNA was prepared and measured using the Cells-to-Ct kit. Add DNase to Lysis solution. • 2. 15 μL of sample lysate was added to 35 µL of Reverse Transcription Master Mix (containing 2×RT Buffer, 20×RT Enzyme Mix and Nuclease-free Water) for a final 50 μL reaction volume. • 3. Separate PCR cocktails were prepared for CYP3A4; containing the CYP specific probe set and that of ACTB as the endogenous control gene. […] Reactions were analyzed on an Applied Biosystems Real Time PCR system (AB 7500). […] For mRNA level determination, the mRNA content in each well is expressed as 2^Ct(ACTB)-Ct(CYP). Fold of induction=mRNA(induced)/mRNA(vehicle) 3) The percent adjusted positive control is determined by: % of positive control=[(fold induction of test article)/(fold induction of positive control)]*100

[1] = tested on: cryopreserved human hepatocytes; test: Cell viability assessment in CYP induction study (CellTiter-Fluor); type: cell-based; conditions: donor 1, 10 μM, 72 hours
Experimental: Preparation and Plating of Human Hepatocytes • 1. The cryopreserved human hepatocytes were thawed in 37° C. water bath and diluted by plating medium to a seeding density of 0.55×10^6 cells/mL. • 2. Transfer 100 μL to each well of collagen I coated 96-well plate. Place plate(s) in incubator and incubate at 37° C. for 4-6 hours. • 3. After incubation, observe cell morphology, agitate plate(s) to loosen debris, and replace medium. Place plate in incubator and incubate for 18 hours.
Incubation with Test Compound(s) • 1. Prepare dilute test compound and positive control inducers with 37° C. prepared incubation medium to respective working concentrations (Table 11). Final concentration of DMSO in the treatment group will be 0.1%. Prepare 25 mM chlorpromazine in DMSO and dilute 1000-fold with incubation medium as a cytotoxicity control.
• 2. Remove the Hepatocyte plate from the incubator. Observe cell morphology. Replace the medium in the appropriate wells with 125 μL of the toxicity controls, DMSO controls, inducers, or test article solutions, each in triplicate. • 3. After 24 hours and 48 hours, remove the Hepatocyte plate from the incubator and observe cell morphology. Renew the medium with test articles that freshly diluted from DMSO stocks. […]
After 72 hours of treatment, warm the incubation medium to 37° C. […] Cell viability was assessed by CellTiter-Fluor™ Cell Viability Assay kit. […]

human hepatocytes = test: Metabolic stability of test compound in human hepatocyte cell; type: in vitro ADME; conditions: comparing with reference 1 and reference 2
Experimental: • 1. The cryopreserved human hepatocytes cells were thawed in 37° C. water bath and diluted with pre-warmed incubation medium to a working cell density of 1×10^6 viable cells/mL. • 2. The 198 μL pre-warmed hepatocyte suspensions were spiked with 2 μL of 100 μM compound or reference compound(Verapamil) at a final concentration of 1.0 μM in a 96-well plate. The plate was incubated at 37° C., 900 rpm. All incubations will be performed in singlet. • 3. 25 μL aliquots of well contents were collected at time points of 0, 15, 30, 60, 90 and 120 minutes. The reactions were stopped by the addition of 6-fold volumes of cold acetonitrile with internal standards. • 4. After centrifugation for 25 minutes at 3,220 g. Aliquot of 100 μL of the supernatant was mixed with 100 μL of ultra-pure H2O and then used for LC-MS/MS analysis.
All calculations were carried out using Microsoft Excel. Peak areas were determined from extracted ion chromatograms. Determine the in vitro half-life (t1/2) of parent compound by regression analysis of the percent parent disappearance vs. time curve.
The in vitro half-life (in vitro t1/2) is determined from the slope value k:
Conversion of the in vitro t1/2(in min) into the in vitro intrinsic clearance (in vitro CLint, in μL/min/10^6 cells) is done using the following equation:
V=incubation volume (0.2 mL);
N=number of hepatocytes per well (0.2×10^6 cells).
Conversion of the in vitro t1/2(in min) into the scale-up intrinsic clearance (CLint(liver), in mL/min/kg) was done using the following equation:
CLint(liver)=kV/N×scaling factor

Row | Structure (SMILES) | mRNA Percentage of positive control at 10 uM (CYP3A4; CYP3A4 mRNA, donor 1, 10 μM, positive control rifampicin) [%] | mRNA Fold induction (Mean ± SD) (CYP3A4; CYP3A4 mRNA, donor 1, 10 μM, vs vehicle) | Cell viability [1] [%] | metabolic stability in human hepatocyte cells, in words (human hepatocytes) | CYP induction effect, in words (CYP3A4; CYP3A4, comparing with reference 2)
1 | CCOC(=O)C1=C(CN2CCN3C(=O)N(CC(C)(C)C(=O)O)C[C@@H]3C2)NC(c2nccs2)=N[C@H]1c1cccc(F)c1C [Reference 2, reference compound] | 20.50 | 5.05 ± 0.61 | 117 |  | 
2 | CCOC(=O)C1=C(CN2CCN3C(=S)N(CC(C)(C)C(=O)O)CC3C2)NC(c2nccs2)=N[C@H]1c1cccc(F)c1C (single isomer, unassigned) [Compound 1A] |  |  | 95 | improved metabolic stability | no CYP induction effect

From patent US20230165865A1, “HETEROARYLDIHYDROPYRIMIDINE DERIVATIVES AND METHODS OF TREATING HEPATITIS B INFECTIONS” (Janssen Pharmaceutica NV, priority 2018, published 2023)
